Experiment [1] addresses T1, Bcr-Abl-wt kinase (Homo sapiens, UniProt P00519).
T1 sequence (P00519 242-493 limits assumed): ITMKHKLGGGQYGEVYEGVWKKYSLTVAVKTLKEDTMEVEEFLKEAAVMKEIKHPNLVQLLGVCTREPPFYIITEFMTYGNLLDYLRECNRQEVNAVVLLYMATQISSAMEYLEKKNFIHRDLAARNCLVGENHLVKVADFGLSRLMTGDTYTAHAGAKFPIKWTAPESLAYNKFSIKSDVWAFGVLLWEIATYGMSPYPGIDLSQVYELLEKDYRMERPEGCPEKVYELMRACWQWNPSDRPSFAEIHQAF
Put plainly: Bcr-Abl wild type biochemical assay (MBP phosphorylation, 33P-ATP). As to conditions: 50 μM ATP. On the procedure:
(§1) Bcr-Abl Wild Type and Mutant T315I Biochemical Assay
(§2) Bcr-Abl-wt or mutant Bcr-Abl-T3151 kinase (0.17 nM) was incubated with Myelin Basic Protein (MBP, 2 μM) in assay buffer consisting of 50 mM Tris pH 7.5, 10 mM MgCl2, 1 mM EGTA, 2 mM DTT, 50 μM ATP and 0.4 μCi of ^33P-ATP. Test compounds were added at varying concentrations (final DMSO conc=1%) prior to the addition of ATP. The reaction mixture was incubated for 1 hour at 32° C. The reaction was then stopped by addition of phosphoric acid (final conc=1%) and samples were transferred to filtermats and read in a betaplate reader. Inhibition of MBP phosphorylation by Bcr-Abl-wt or Bcr-Abl-T3151 was analyzed by using a 4 parameter fit and in-house software.

Experiment [2] in a line: In vitro tumor cell proliferation assay (Cell Titre-Glo), cell lines of interest. It is filed as cell-based. As to conditions: 72 hours, Cell Titer Glo; read-out: antiproliferative properties (IC50) in one or more cell lines of interest. An excerpt:
In vitro Tumor Cell Proliferation Assay

The target in experiment [3] is T2, mutant Bcr-Abl-T3151 kinase (Homo sapiens, UniProt P00519, T315I).
T2 sequence (P00519 242-493 T315I limits assumed): T1 sequence (P00519 242-493 limits assumed) with T74I
Put plainly: Bcr-Abl mutant T315I biochemical assay (MBP phosphorylation, 33P-ATP). Particulars: 50 μM ATP. How it is done: as §1, §2

Experiment [4] concerns the target T3, Flk-1 (murine VEGFR-2) kinase domain (Mus musculus, UniProt P35918).
T3 construct: 7 nM Flk-1 (kinase domain)
Put plainly: Flk-1 (murine VEGFR-2) biochemical assay, TR-FRET. As to conditions: 10 μM ATP. On the procedure: Flk-1 (Murine VEGFR-2) Biochemical Assay
This assay was performed in 96-well opaque plates (Costar 3915) in the TR-FRET format. Reaction conditions were as follows: 10 μM ATP, 25 nM poly GT-biotin, 2 nM Eu-labelled phospho-Tyr Ab (PY20 Perkin Elmer), 10 nM APC (Perkin Elmer), 7 nM Flk-1 (kinase domain), 1% DMSO, 50 mM HEPES pH 7.5, 10 mM MgCl2, 0.1 mM EDTA, 0.015% BRIJ, 0.1 mg/mL BSA, 0.1% mercapto-ethanol). Reaction was initiated upon addition of enzyme. Final reaction volume in each well was 100 μL. Plates were read at both 615 and […] on a Perkin Elmer Victor V Multilabel counter at about 1.5-2.0 hours after reaction initiation. Signal was calculated as a ratio: (665 nm/615 nm)*10000 for each well.
A general note: In TR-FRET formats the signal depends on donor and acceptor labels being close together.

The target in experiment [5] is T4, human recombinant c-Met intracellular kinase domain (Homo sapiens, UniProt P08581).
T4 construct: C-terminal HIS-tagged intracellular kinase domain (956 to 1390 amino acids) human recombinant c-Met; His tag (C)
The experiment is described as follows: c-Met biochemical assay, ELISA format. Particulars: 0.2 μM ATP. How it is done: An ELISA format was used for the c-Met biochemical assay. This assay uses the C-terminal HIS-tagged intracellular kinase domain (956 to 1390 amino acids) human recombinant c-Met in 96-well plates. 96-Well plates (Costar #9018) coated with poly(GluTyr) (Sigma # P0275) were used in this assay. The poly(GluTyr) substrate coated on the plate was phosphorylated in a 100 μL reaction volume with 2 nM c-Met protein in an assay buffer (50 mM HEPES pH7.0, 5 mM MnCl2, 0.1% BSA, 0.5 mM sodium orthovanadate, 0.1% β-mercaptoethanol), with 0.2 μM ATP (Sigma #A7699). […] After 25 minutes of incubation, the assay reaction was stopped with 25 μL of 100 mM EDTA. The plates were then washed, and wells were treated with 100 μL of 80 ng/mL anti-4G10-HRP antibody (Upstate #16-105) for 1 h. Plates were washed one final time, and were developed with 100 μL 3,3′,5,5′-TMB (Sigma #T8665), and quenched with 100 μL 1M HCl. Plates were read on a Victor 2 plate reader (Perkin Elmer) and IC50 analysis and calculation were performed using in-house software.
Background: ELISA stands for enzyme-linked immunosorbent assay.

The subject of experiment [6] is early phase CML. Particulars: patients with early phase CML; cited from earlier work.
The test system of experiment [7] is Bcr-Abl E255K mutant. As to conditions: cited from earlier work.
Experiment [8] has as its system Imatinib-resistant Bcr-Abl mutations. Particulars: cited from earlier work.
Experiment [9] concerns Bcr-Abl kinase. Particulars: greater potency than Imatinib; cited from earlier work.

The term IC50 denotes the concentration at which inhibition is half-maximal.

Structures are written as SMILES. Residue numbers refer to the chain shown, from its start. Where a name gives a salt, the structure may show the parent alone.

T4 sequence (P08581 956-1390): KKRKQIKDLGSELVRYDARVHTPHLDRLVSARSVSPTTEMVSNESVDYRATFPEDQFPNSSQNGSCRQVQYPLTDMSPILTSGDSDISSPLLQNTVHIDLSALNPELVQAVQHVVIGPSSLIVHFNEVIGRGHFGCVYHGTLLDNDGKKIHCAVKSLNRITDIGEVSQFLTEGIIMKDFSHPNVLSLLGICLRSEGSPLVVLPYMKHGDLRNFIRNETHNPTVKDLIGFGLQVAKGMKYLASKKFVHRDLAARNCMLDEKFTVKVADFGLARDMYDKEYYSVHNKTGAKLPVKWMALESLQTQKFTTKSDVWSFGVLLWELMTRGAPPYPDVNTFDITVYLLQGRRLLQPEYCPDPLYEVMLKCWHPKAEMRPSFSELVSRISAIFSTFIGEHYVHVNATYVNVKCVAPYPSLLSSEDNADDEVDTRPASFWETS
T3 sequence (P35918 832-1160 limits assumed): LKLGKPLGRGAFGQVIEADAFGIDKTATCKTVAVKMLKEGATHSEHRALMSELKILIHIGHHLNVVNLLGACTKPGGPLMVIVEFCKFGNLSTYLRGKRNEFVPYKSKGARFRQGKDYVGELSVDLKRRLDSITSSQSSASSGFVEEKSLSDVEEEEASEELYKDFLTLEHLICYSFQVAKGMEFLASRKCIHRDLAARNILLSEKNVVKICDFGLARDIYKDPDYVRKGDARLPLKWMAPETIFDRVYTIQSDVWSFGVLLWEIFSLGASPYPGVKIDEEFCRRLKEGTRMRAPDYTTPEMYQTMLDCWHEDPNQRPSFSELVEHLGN

On to `CNC(=O)c1cc(Oc2ccc(NC(=O)Nc3cc(C(C)(C)C)nn3-c3cccc(COC(C)=O)c3)c(F)c2)ccn1` [Example 11, 3-(3-tert-Butyl-5-{[(2-fluoro-4-{[2-(methylcarbamoyl)pyridin-4-yl]oxy}-phenyl)carbamoyl]amino}-1H-pyrazol-1-yl)benzyl acetate], for which the IC50 in [1] is less than 1 µM; in experiment [2], less than 5 µM; in experiment [3] it was less than 1 µM; in [4], less than 1 µM; in experiment [5], less than 1 µM.
For `CNC(=O)c1cc(Oc2ccc(NC(=O)Nc3cc(C(C)(C)C)nn3-c3cccc(COP(=O)(O)O)c3)c(F)c2)ccn1` [Example 13, 3-(3-tert-Butyl-5-{[(2-fluoro-4-{[2-(methylcarbamoyl)pyridin-4-yl]oxy}-phenyl)carbamoyl]amino}-1H-pyrazol-1-yl)benzyl dihydrogen phosphate dihydrochloride], in experiment [2], the IC50 is less than 5 µM.
Regarding `CNC(=O)c1cc(Oc2ccc(NC(=O)Nc3cc(C(C)(C)C)nn3-c3cccc(COC(=O)CC(C)C)c3)c(F)c2)ccn1` [Example 17, 3-(3-tert-Butyl-5-{[(2-fluoro-4-{[2-(methylcarbamoyl)pyridin-4-yl]oxy}phenyl)carbamoyl]amino}-1H-pyrazol-1-yl)benzyl 3-methylbutanoate], the IC50 in experiment [3] and in experiment [5] was less than 20 µM each time.
On to `Cc1ccc(NC(=O)c2ccc(CN3CCN(C)CC3)cc2)cc1Nc1nccc(-c2cccnc2)n1` [Imatinib], for which the “degree of response at both haematological and cytogenetic levels” value in experiment [6] is reported as “greater than 90%”.
For the compound `CNC(=O)c1cc(Oc2ccc(NC(=O)Nc3cc(C(C)(C)C)nn3-c3cccc(COC(=O)[C@H](NC(=O)OCC4c5ccccc5-c5ccccc54)C(C)C)c3)c(F)c2)ccn1` [Example 8, 3-(3-tert-Butyl-5-{[(2-fluoro-4-{[2-(methylcarbamoyl)pyridin-4-yl]oxy}phenyl)carbamoyl]amino}-1H-pyrazol-1-yl)benzyl-N-[(9H-fluoren-9-ylmethoxy)carbonyl]D valinate], the IC50 in experiment [3] and in experiment [5] was less than 20 µM throughout.
For `CNC(=O)c1cc(Oc2ccc(NC(=O)Nc3cc(C(C)(C)C)nn3-c3cccc(COC(=O)CCC(=O)O)c3)c(F)c2)ccn1` [Example 14, 4-{[3-(3-tert-Butyl-5-{[(2-fluoro-4-{[2-(methylcarbamoyl)pyridin-4-yl]oxy}-phenyl)carbamoyl]amino}-1H-pyrazol-1-yl)benzyl]oxy}-4-oxobutanoic acid], the IC50 in experiment [1] is less than 1 µM; in [2], less than 5 µM; in experiment [3] it was less than 1 µM; in experiment [4] it was less than 1 µM; in experiment [5], less than 1 µM.
Regarding `CNC(=O)c1cc(Oc2ccc(NC(=O)Nc3cc(C(C)(C)C)nn3-c3cccc(COC(=O)[C@H](N)C(C)C)c3)c(F)c2)ccn1` [Example 9, 3-(3-tert-Butyl-5-{[(2-fluoro-4-{[2-(methylcarbamoyl)pyridin-4-yl]oxy}phenyl)-carbamoyl]amino}-1H-pyrazol-1-yl)benzyl D-valinate], the IC50 in [1] is less than 1 µM; in experiment [2], less than 5 µM; in experiment [3] it was less than 1 µM; in experiment [4], less than 1 µM; in [5] it was less than 1 µM.
`Cc1cn(-c2cc(NC(=O)c3ccc(C)c(Nc4nccc(-c5cccnc5)n4)c3)cc(C(F)(F)F)c2)cn1` [AMN-107, nilotinib]: the “inhibition of E255K mutant in a biochemical assay” value in experiment [7] is on record as “somewhat weak inhibition”. For the same compound, the “inhibition of Imatinib-resistant Bcr-Abl mutations” value in experiment [8] is given as “inhibit most Imatinib-resistant Bcr-Abl mutations, except for T315I”. The “potency of inhibition of Bcr-Abl kinase activity relative to Imatinib” value in [9] is 20 fold.
With `CNC(=O)c1cc(Oc2ccc(NC(=O)Nc3cc(C(C)(C)C)nn3-c3cccc(COP(=O)(OC(C)(C)C)OC(C)(C)C)c3)c(F)c2)ccn1` [Example 12, Di-tert-butyl 3-(3-tert-butyl-5-{[(2-fluoro-4-{[2-(methylcarbamoyl)pyridin-4-yl]oxy}phenyl)carbamoyl]amino}-1H-pyrazol-1-yl)benzyl phosphate], the IC50 in experiment [2] was less than 5 µM; in experiment [3], less than 20 µM; in experiment [5], less than 20 µM.
On to `CNC(=O)c1cc(Oc2ccc(NC(=O)Nc3cc(C(C)(C)C)nn3-c3cccc(COC(=O)[C@@H](N)C(C)C)c3)c(F)c2)ccn1` [Example 10, 3-(3-tert-Butyl-5-{[(2-fluoro-4-{[2-(methylcarbamoyl)pyridin-4-yl]oxy}-phenyl)carbamoyl]amino}-1H-pyrazol-1-yl)benzyl L-valinate], for which the half-inhibitory concentration (IC50) in experiment [1], in experiment [3], in [4] and in [5] was less than 1 µM in each case.
On to `CCC(=O)OCc1cccc(-n2nc(C(C)(C)C)cc2NC(=O)Nc2ccc(Oc3ccnc(C(=O)NC)c3)cc2F)c1` [Example 16, 3-(3-tert-butyl-5-{[(2-fluoro-4-{[2-(methylcarbamoyl)pyridin-4-yl]oxy}phenyl)carbamoyl]amino}-1H-pyrazol-1-yl)benzyl propionate], for which the IC50 in experiment [1], in experiment [3], in experiment [4] and in experiment [5] was less than 1 µM throughout.
On to `CNC(=O)c1cc(Oc2ccc(NC(=O)Nc3cc(C(C)(C)C)nn3-c3cccc(COC(=O)COC)c3)c(F)c2)ccn1` [Example 15, 3-(3-tert-Butyl-5-{[(2-fluoro-4-{[2-(methylcarbamoyl)pyridin-4-yl]oxy}phenyl)carbamoyl]amino}-1H-pyrazol-1-yl)benzyl methoxyacetate], for which the IC50 in experiment [1], in experiment [3], in experiment [4] and in [5] was less than 1 µM throughout.

The values are drawn from patent US8101773B2, “Hydroxy methyl phenyl pyrazolyl urea compounds useful in the treatment of cancer” (Bayer Healthcare LLC, priority 2006, dated 2012).
